Measured values: PubChem BioAssay (NCI)
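In this assay, cells in 96-well plates receive the compound at five concentrations for 48 hours. Endpoints are linearly interpolated between the surrounding concentrations. TGI is the concentration that stops growth completely.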

Tests used:
Experiment in all cases: NCI tumour cell line growth inhibition, 48 h
SF-295 CNS = system: SF-295 CNS
CCRF-CEM leukemia = system: CCRF-CEM leukemia
IGROV1 ovarian = system: IGROV1 ovarian
PC-3 prostate = system: PC-3 prostate
A549 NSCLC = system: A549 NSCLC
TK-10 renal = system: TK-10 renal
RPMI-8226 leukemia = system: RPMI-8226 leukemia
MALME-3M melanoma = system: MALME-3M melanoma
NCI-H23 lung = system: NCI-H23 lung
K-562 leukemia = system: K-562 leukemia
HT29 colon = system: HT29 colon
OVCAR-4 ovarian = system: OVCAR-4 ovarian
COLO 205 colon = system: COLO 205 colon
HCT-116 colon = system: HCT-116 colon
RXF 393 renal = system: RXF 393 renal
ACHN renal = system: ACHN renal
UO-31 renal = system: UO-31 renal
HS 578T breast = system: HS 578T breast

| SMILES | TGI (SF-295 CNS) | TGI (CCRF-CEM leukemia) | TGI (IGROV1 ovarian) | TGI (PC-3 prostate) | TGI (A549 NSCLC) | TGI (TK-10 renal) | TGI (RPMI-8226 leukemia) | TGI (MALME-3M melanoma) | TGI (NCI-H23 lung) | TGI (K-562 leukemia) | TGI (HT29 colon) | TGI (OVCAR-4 ovarian) | TGI (COLO 205 colon) | TGI (HCT-116 colon) | TGI (RXF 393 renal) | TGI (ACHN renal) | TGI (UO-31 renal) | TGI (HS 578T breast) |
| --- | --- | --- | --- | --- | --- | --- | --- | --- | --- | --- | --- | --- | --- | --- | --- | --- | --- | --- |
| Cc1c2c(c(O)c3c(O)cccc13)C(=O)C1(O)C(O)=C(C(=O)NCNc3ccc(C(N)=O)cn3)C(=O)C(N(C)C)C1C2 (stereo not given) | 17.9 µM | 8.31 µM | 6.27 µM | 30.7 µM | 23 µM | 49.2 µM | 7.59 µM | > 100 µM | 39.3 µM | 6.26 µM | > 100 µM | 5.85 µM | > 100 µM | > 100 µM | 20.1 µM |  |  |  |
| CSc1nc(NC2OC(COC(C)=O)C(OC(C)=O)C(OC(C)=O)C2OC(C)=O)c2c(n1)OCC2=O (stereo not given) | > 100 µM | > 100 µM | > 100 µM |  | > 100 µM | > 100 µM | > 100 µM | > 100 µM | > 100 µM | > 100 µM | > 100 µM | > 100 µM | > 100 µM | > 100 µM |  | > 100 µM | > 100 µM |  |
| CN1C(=O)C2(C=CC(O)CC2)c2ccccc21 (stereo not given) | > 100 µM | > 100 µM | > 100 µM | > 100 µM | > 100 µM | > 100 µM | > 100 µM |  | > 100 µM | > 100 µM | > 100 µM | > 100 µM | > 100 µM | > 100 µM |  | > 100 µM | > 100 µM |  |
| CC(=O)Nc1ccc2c3c(cc(O)c2c1)N(C(=O)CCCCCCC(=O)N1CC(CCl)c2c1cc(O)c1cc(NC(C)=O)ccc21)CC3CCl (stereo not given) | 3.19 µM |  | 0.499 µM | 1.13 µM | > 100 µM | 0.0702 µM |  | 0.0233 µM | 0.0228 µM | > 100 µM | > 100 µM | > 100 µM | 0.0161 µM |  | 0.0185 µM | 0.0345 µM |  |  |
| Cc1cc(Cc2cc(C)c(NC(=O)C(=O)C3CCC4=C(SC5C=CC=CC5N4)C3=O)c(C(C)C)c2)cc(C(C)C)c1NC(=O)C(=O)C1CCC2=C(SC3C=CC=CC3N2)C1=O (stereo not given) | > 100 µM | > 100 µM | > 100 µM | 90.9 µM | > 100 µM | > 100 µM | > 100 µM |  | > 100 µM | > 100 µM | > 100 µM | > 100 µM | > 100 µM | > 100 µM | > 100 µM | > 100 µM | > 100 µM |  |
| CC1=C(O)C(=O)C2C(=O)C1C1Cc3ccccc3C21 (stereo not given) | > 100 µM | > 100 µM | > 100 µM |  | > 100 µM | > 100 µM | > 100 µM | > 100 µM | > 100 µM | > 100 µM | > 100 µM | > 100 µM | > 100 µM |  | > 100 µM | > 100 µM | > 100 µM |  |
| C=CCN(C(=O)OC(C)(C)C)[C@H](C)C(=O)N[C@@H](C)C(=O)OC | > 100 µM | > 100 µM | > 100 µM | > 100 µM | > 100 µM |  | > 100 µM | > 100 µM | > 100 µM | > 100 µM | > 100 µM | > 100 µM | > 100 µM | > 100 µM |  | > 100 µM | > 100 µM | > 100 µM |
